This experiment deals with T1, hNPRA (Homo sapiens, UniProt P16066).
T1 construct: expressed in transfected cells
T1 sequence (P16066 33-1061): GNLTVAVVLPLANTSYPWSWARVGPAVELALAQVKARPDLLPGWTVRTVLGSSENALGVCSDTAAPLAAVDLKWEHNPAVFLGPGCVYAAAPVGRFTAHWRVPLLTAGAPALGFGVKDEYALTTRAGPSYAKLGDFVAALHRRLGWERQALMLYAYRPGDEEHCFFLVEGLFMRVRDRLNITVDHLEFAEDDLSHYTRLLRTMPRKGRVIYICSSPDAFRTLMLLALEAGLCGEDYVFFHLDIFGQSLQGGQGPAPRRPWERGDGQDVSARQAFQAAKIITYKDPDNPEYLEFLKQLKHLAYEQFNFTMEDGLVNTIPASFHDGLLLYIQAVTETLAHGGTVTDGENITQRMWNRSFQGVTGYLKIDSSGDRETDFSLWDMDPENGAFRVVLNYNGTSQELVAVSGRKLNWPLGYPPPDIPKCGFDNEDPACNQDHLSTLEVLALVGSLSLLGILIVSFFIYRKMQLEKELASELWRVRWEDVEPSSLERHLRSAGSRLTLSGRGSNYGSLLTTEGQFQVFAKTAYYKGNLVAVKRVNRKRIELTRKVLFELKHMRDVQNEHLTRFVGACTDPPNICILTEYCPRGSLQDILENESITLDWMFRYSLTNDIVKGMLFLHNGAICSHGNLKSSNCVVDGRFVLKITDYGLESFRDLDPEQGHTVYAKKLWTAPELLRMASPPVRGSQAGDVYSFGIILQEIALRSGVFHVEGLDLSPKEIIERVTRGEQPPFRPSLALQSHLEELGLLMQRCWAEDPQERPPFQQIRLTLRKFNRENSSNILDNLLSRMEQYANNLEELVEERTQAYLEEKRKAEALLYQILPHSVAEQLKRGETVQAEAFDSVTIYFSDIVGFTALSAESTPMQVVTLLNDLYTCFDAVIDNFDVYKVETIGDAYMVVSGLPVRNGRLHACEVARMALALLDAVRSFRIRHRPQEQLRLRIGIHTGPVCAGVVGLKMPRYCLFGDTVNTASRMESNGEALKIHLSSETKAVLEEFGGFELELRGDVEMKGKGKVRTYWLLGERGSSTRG
As to the kind of experiment: NPRA Functional Cell Assay (cGMP HTRF). Type of experiment: cell-based. Conditions: Human NPRA HEK JumpIn stable cells; cGMP by HTRF after 1 hour at 37° C.; 10-point dose response. The source says: Assay Buffer components HEPES and Opti-MEM® I Reduced-Serum with Glutamine (no phenol red) were from Gibco/Invitrogen (Thermo Fisher Scientific, Waltham, Mass. USA). 3-Isobutyl-1-methylxanthine (IBMX) and 4-(3-Butoxy-4-methoxybenzyl)imidazolidin-2-one (RO20) were obtained from Sigma-Aldrich (St. Louis, Mo., USA). DPBS (Dulbecco's phosphate-buffered saline) without Ca2+ and Mg2+ was purchased from GE Healthcare Bio-Sciences (Pittsburgh, Pa., USA). 384 well white Optiplates were from Perkin Elmer (Atlantic Highlands, N.J., USA). Human ANP (Atrial Natriuretic Peptide) (1-28) was purchased from Sigma-Aldrich (Catalog #A1663) and rat ANP (1-28) from Bachem (Torrance, Calif., USA) (Catalog #H2100). Human-BNP (Human-Brain Natriuretic Peptide) (1-32 AA) was purchased from American Peptide Company (Sunnyvale, Calif., USA) (product No. 14-1-90). cGMP kits were purchased from Cisbio. The assay ready frozen (ARF) Human/rat/dog NPRA HEK JumpIn Stable frozen cells (low passage number 5-11) were prepared in-house.
Test compounds were titrated in DMSO in a 10-point dose response in a separate step followed by a 100-fold dilution into the reaction. Positive response for each assay was determined using 10 nM rat-ANP peptide (rat cells) or 50 nM h-ANP peptide (human and dog cells).
Cells were thawed, washed with DPBS and resuspended in assay buffer (Opti-MEM+Glutamine, phenol red free media, 10 mM HEPES, 100 uM IBMX and 100 uM RO20) that was warmed to 37° C. Cells were then transferred to microplates via a Microplate Combi dispenser at a density of 1500, 400 and 1200 cells/well for human, rat and dog cells respectively, followed by acoustic transfer (Echo) of compound.
Compounds and cells were incubated at 37° C. with 5% CO2 for 1 hour, after which the cells were lysed and cGMP was captured using a CisBio cGMP HTRF assay kit. The TRF signal was measured with an Envision plate reader (emission set to 615 and 665 nm) after 1 hour incubation at ambient temperature. The TRF signal was converted to [cGMP] through the use of a cGMP calibration curve on each microplate. EC50's were generated from the resulting dose response curves by use of a 4 parameter logistic algorithm.
Assay Buffer components HEPES and Opti-MEM® I Reduced-Serum with Glutamine (no phenol red) were from Gibco/Invitrogen. 3-Isobutyl-1-methylxanthine (IBMX) and 4-(3-Butoxy-4-methoxybenzyl)imidazolidin-2-one (RO20) were obtained from Sigma. DPBS (Dulbecco's phosphate-buffered saline) without Ca2+ and Mg2+ was purchased from GE Healthcare Bio-Sciences (Pittsburgh, Pa., USA). 384 well white Optiplates were from Perkin Elmer (Atlantic Highlands, N.J., USA). Human ANP (1-28) was purchased from Sigma (A1663) and rat ANP (1-28) from Bachem (H2100). Human-BNP (1-32 AA) was purchased from American Peptide Company (Sunnyvale, Calif., USA) (product No. 14-1-90). cGMP kits were purchased from Cisbio (Bedford, Mass., USA). The assay ready frozen (ARF) Human/rat/dog NPRA HEK JumpIn Stable frozen cells (low passage number 5-11) were prepared in-house.
Compounds and cells were incubated at 37° C. with 5% CO2 for 1 hour, after which the cells were lysed and cGMP was captured using a CisBio cGMP HTRF assay kit. The TRF signal was measured with an Envision® plate reader (Perkin Elmer)(emission set to 615 and 665 nm) after 1 hour incubation at ambient temperature. The TRF signal was converted to [cGMP] through the use of a cGMP calibration curve on each microplate. EC50's were generated from the resulting dose response curves by use of a 4 parameter logistic algorithm.
hNPRA EC50 (nM) are were determined for the compounds of Example 1 through 273 and are reported in the Experimental section of this application.

`CC(C)[C@]1(F)CCc2nc3c(F)cc(C(=O)N[C@H](CCN4CCCC4)c4ccc(-c5ccnnc5)nc4)cc3cc2C1` (racemic) [Example 35, rac-(7S)-4,7-difluoro-7-isopropyl-N-[rac-(1R)-1-(6-pyridazin-4-yl-3-pyridyl)-3-pyrrolidin-1-ium-1-yl-propyl]-6,8-dihydro-5H-acridine-2-carboxamide;2,2,2-trifluoroacetate] showed an EC50 of 285 nM.

Consider `CC(C)[C@]1(F)CCc2nc3c(F)cc(C(=O)N[C@H](CCN4CCC[C@H](O)C4)c4ccc(-c5ccnnc5)nc4)cc3cc2C1` (racemic) [Example 36, rac-(7S)-4,7-difluoro-7-isopropyl-N-[rac-(1R)-1-(6-pyridazin-4-yl-3-pyridyl)-3-[rac-(3S)-3-hydroxypiperidin-1-ium-1-yl]propyl]-6,8-dihydro-5H-acridine-2-carboxamide;2,2,2-trifluoroacetate], for which the concentration giving a half-maximal response (EC50) amounted to 260 nM. Molecule `CC(C)[C@]1(F)CCc2nc3c(F)cc(C(=O)N[C@H](CCN(C)C)c4ccc(-c5ccnnc5)nc4)cc3cc2C1` (racemic) [Example 37, dimethyl-[rac-(3R)-3-(6-pyridazin-4-yl-3-pyridyl)-3-[[rac-(7S)-4,7-difluoro-7-isopropyl-6,8-dihydro-5H-acridine-2-carbonyl]amino]propyl]ammonium;2,2,2-trifluoroacetate] gave a half-maximal effective concentration (EC50) of 270 nM. Consider `CC(C)[C@]1(F)CCc2nc3c(F)cc(C(=O)N[C@H](CCN4CCC5(CCOC5)CC4)c4ccc(-c5ccnnc5)nc4)cc3cc2C1` (racemic) [Example 38, rac-(7S)-4,7-difluoro-7-isopropyl-N-[rac-(1R)-3-(2-oxa-8-azoniaspiro[4.5]decan-8-yl)-1-(6-pyridazin-4-yl-3-pyridyl)propyl]-6,8-dihydro-5H-acridine-2-carboxamide;2,2,2-trifluoroacetate], for which a half-maximal response (EC50) required 317 nM. `CC(C)[C@]1(F)CCc2nc3c(F)cc(C(=O)N[C@H](CCN4CCC5(CC4)CC5CO)c4ccc(-c5ccnnc5)nc4)cc3cc2C1` (mixture of isomers) [Example 39, rac-(7S)-4,7-difluoro-7-isopropyl-N-[rac-(1R)-3-[2-(hydroxymethyl)-6-azoniaspiro[2.5]octan-6-yl]-1-(6-pyridazin-4-yl-3-pyridyl)propyl]-6,8-dihydro-5H-acridine-2-carboxamide;2,2,2-trifluoroacetate] yielded a concentration giving a half-maximal response (EC50) of 258 nM. The molecule `CC(C)[C@]1(F)CCc2nc3c(F)cc(C(=O)N[C@H](CCN4CCC[C@@H](O)C4)c4ccc(-c5ccnnc5)nc4)cc3cc2C1` (racemic) [Example 40, rac-(7S)-4,7-difluoro-7-isopropyl-N-[rac-(1R)-1-(6-pyridazin-4-yl-3-pyridyl)-3-[rac-(3R)-3-hydroxypiperidin-1-ium-1-yl]propyl]-6,8-dihydro-5H-acridine-2-carboxamide;2,2,2-trifluoroacetate] showed an EC50 of 338 nM.

Regarding `CC(O)C1CCN(CC[C@@H](NC(=O)c2cc(F)c3nc4c(cc3c2)C[C@](F)(C(C)C)CC4)c2ccc(-c3ccnnc3)nc2)CC1` (mixture of isomers) [Example 41, rac-(7S)-4,7-difluoro-7-isopropyl-N-[rac-(1R)-3-[4-(1-hydroxyethyl)piperidin-1-ium-1-yl]-1-(6-pyridazin-4-yl-3-pyridyl)propyl]-6,8-dihydro-5H-acridine-2-carboxamide;2,2,2-trifluoroacetate], a half-maximal effect (EC50) was put at 236 nM. In turn, `CC(C)[C@]1(F)CCc2nc3c(F)cc(C(=O)N[C@H](CCN4CCC5CCCCC5C4)c4ccc(-c5ccnnc5)nc4)cc3cc2C1` (mixture of isomers) [Example 42, rac-(7S)-4,7-difluoro-7-isopropyl-N-[rac-(1R)-3-(1,2,3,4,4a,5,6,7,8,8a-decahydroisoquinolin-2-ium-2-yl)-1-(6-pyridazin-4-yl-3-pyridyl)propyl]-6,8-dihydro-5H-acridine-2-carboxamide;2,2,2-trifluoroacetate] registered an EC50 of 375 nM. As to `CC(C)[C@]1(F)CCc2nc3c(F)cc(C(=O)N[C@H](CCN4CCCCC4CCN(C)C)c4ccc(-c5ccnnc5)nc4)cc3cc2C1` (mixture of isomers) [Example 43, rac-(7S)-4,7-difluoro-7-isopropyl-N-[rac-(1R)-3-[2-[2-(dimethylamino)ethyl]piperidin-1-ium-1-yl]-1-(6-pyridazin-4-yl-3-pyridyl)propyl]-6,8-dihydro-5H-acridine-2-carboxamide;2,2,2-trifluoroacetate], the EC50 is 216 nM. In the case of `CC1CCCCN1CC[C@@H](NC(=O)c1cc(F)c2nc3c(cc2c1)C[C@](F)(C(C)C)CC3)c1ccc(-c2ccnnc2)nc1` (mixture of isomers) [Example 44, rac-(7S)-4,7-difluoro-7-isopropyl-N-[rac-(1R)-3-(2-methylpiperidin-1-ium-1-yl)-1-(6-pyridazin-4-yl-3-pyridyl)propyl]-6,8-dihydro-5H-acridine-2-carboxamide;2,2,2-trifluoroacetate], it took 150 nM to reach a half-maximal effect (EC50).

`CC(C)[C@]1(F)CCc2nc3c(F)cc(C(=O)N[C@H](CCN4CCC(CO)CC4)c4ccc(-c5ccnnc5)nc4)cc3cc2C1` (racemic) [Example 45, rac-(7S)-4,7-difluoro-7-isopropyl-N-[rac-(1R)-3-[4-(hydroxymethyl)piperidin-1-ium-1-yl]-1-(6-pyridazin-4-yl-3-pyridyl)propyl]-6,8-dihydro-5H-acridine-2-carboxamide;2,2,2-trifluoroacetate] gave an EC50 of 136 nM. For the molecule `COCC1CCN(CC[C@@H](NC(=O)c2cc(F)c3nc4c(cc3c2)C[C@](F)(C(C)C)CC4)c2ccc(-c3ccnnc3)nc2)CC1` (racemic) [Example 46, rac-(7S)-4,7-difluoro-7-isopropyl-N-[rac-(1R)-3-[4-(methoxymethyl)piperidin-1-ium-1-yl]-1-(6-pyridazin-4-yl-3-pyridyl)propyl]-6,8-dihydro-5H-acridine-2-carboxamide;2,2,2-trifluoroacetate], the EC50 came out at 204 nM.

The record behind these values is patent US20220281886A1, “NATRIURETIC PEPTIDE RECEPTOR A AGONISTS USEFUL FOR THE TREATMENT OF CARDIOMETABOLIC DISEASES, KIDNEY DISEASE AND DIABETES” (Merck Sharp & Dohme Corp., priority 2019, published 2022).
